The source of these data is patent US20260102356A1, “METHOD FOR LOADING DIMERIC CD24 INTO HEK293 CELL EXTRACELLULAR VESICLES WITH ADAM10 GENE KNOCKED OUT” (Exocure Sweden AB, priority 2022, published 2026).

Holding throughout (type): cell-based, human
In assay [1] the test system is PBMCs. Kind of assay: PBMC inflammation model (anti-CD3/anti-CD28), IFN-γ in supernatant, Example 6. The method, then:
• (1) Preparation of dimeric CD24-Exosomes: The plasmid construction, cell line screening and exosome preparation processes were consistent with those in Example 1. • (2) Loading of MyD88 Inhibitor Polypeptide: dimeric CD24 exosomes were mixed well with MyD88 inhibitor polypeptide (1 mg of MyD88 added to 1E+12 exosome particles). The solution was adjusted to a pH of 8.0 (or 9.0, 10.0) with Na2CO3, and then purified using Capto core700 to remove free MyD88 inhibitor polypeptide. The flow-through was collected to obtain CD24 exosomes loaded with MyD88 inhibitor polypeptide. The loading amount of MyD88 inhibitor polypeptide was assessed using ELISA (peptide loading technology referenced in patent: 202111263036.5). • (3) Detection of the immunosuppressive activity of different EVs and proteins in a PBMC inflammation model: PBMCs were used for the experiment. An inflammation model was established by using 1 μg/ml anti-human CD3 Antibody (coated) and 1 μg/ml anti-human CD28 Antibody (free). The positive drug (dexamethasone), free CD24-Fc fusion protein, and various doses of engineered dimeric CD24 loaded-EV and engineered dimeric CD24+MyD88 inhibitor polypeptide loaded-EV were administered for 72 h or 120 h, and their inhibitory activity on the inflammatory response of PBMCs was assessed

Assay [2] deals with PBMCs. Kind of assay: PBMC inflammation model (anti-CD3/anti-CD28), IFN-γ in supernatant, Example 2. The note with it: anti_hCD3 + anti_hCD28 1 μg/mL, treatment 10 μg/mL, 72 h. The method, then: Detection of the immunosuppressive activity of different EVs and proteins in a PBMC inflammation model: PBMCs were used for the experiment. An inflammation model was established by using 1 μg/ml anti-human CD3 Antibody (coated) and 1 μg/ml anti-human CD28 Antibody (free). The positive drug (dexamethasone), free CD24-Fc protein, and various doses of engineered dimeric CD24-loaded EV and monomer CD24-loaded EV were administered for 72 h, and their inhibitory activity on the inflammatory response of PBMCs was assessed.

Assay [3] relates to PBMCs. Kind of assay: PBMC inflammation model (anti-CD3/anti-CD28), IFN-γ in supernatant, Example 4. Particulars: for IFN-γ_pg/mL-Mean / Detected IFN-γ concentration: PBMC supernatant, anti_hCD3 + anti_hCD28 1 μg/mL, treatment 10 μg/mL, 72 h; for Detected IFN-γ concentration: single replicates. On the procedure: Detection of the immunosuppressive activity of different EVs and proteins in a PBMC inflammation model: PBMCs were used for the experiment. An inflammation model was established by using […] anti-human CD3 Antibody (coated) and 1 μg/ml anti-human CD28 Antibody (free). The positive drug (dexamethasone), free ApoE protein, and various doses of engineered dimeric ApoE-loaded EV were administered for 72 h, and their inhibitory activity on the inflammatory response of PBMCs was assessed.

The mark [4] stands for this setting: in vitro PBMC inflammation model.

Several values for one entry are separate records, joined by “and”; a condition that tells them apart may be missing. Equal values may be shown once.

As to `C[C@@H]1C[C@H]2[C@@H]3CCC4=CC(=O)C=C[C@]4(C)[C@@]3(F)[C@@H](O)C[C@]2(C)[C@@]1(O)C(=O)CO` [Dexamethasone, dexamethasone], the IFN-γ_pg/mL-Mean with PBMCs [1] (PBMC supernatant, treatment time 72 h, treatment 10 μg/mL) stood at 4.5 pg/mL; in the assay on PBMCs [2], 6.0 pg/mL; in the assay on PBMCs [3] it was 5.8 pg/mL. The “Detected IFN-γ concentration” value with PBMCs [1] (PBMC supernatant, treatment time 72 h, treatment 10 μg/mL, single replicates) is 4.32 pg/mL and 4.76 pg/mL and 4.5 pg/mL; with PBMCs [2] (single replicates), 5.62 pg/mL and 5.78 pg/mL and 6.51 pg/mL; with PBMCs [3], 5.5 pg/mL and 5.8 pg/mL and 6.2 pg/mL.

On to ApoE: free ApoE protein, comparator, for which the “inflammation inhibitory activity compared to the model group” value with PBMCs [1] (setting [4]) and in the assay on PBMCs [3] (setting [4]) was “better inflammation inhibitory activity” throughout. Also, the IFN-γ_pg/mL-Mean with PBMCs [3] is 18092.0 pg/mL. Also, the “Detected IFN-γ concentration” value in the assay on PBMCs [3] was 18563 pg/mL and 17689 pg/mL and 18024 pg/mL.
